Data from article PMC5117956 (Drug Design, Development and Therapy, 2016).

How the values were obtained:
[1] = In vivo PK experiment: oral SQV with or without oral RESV; set-up: species or system rat; conditions: rats
[2] = clinical practice; cited from earlier work
[3] = low solubility and high permeability; cited from earlier work

Compound	Effect of coadministration on Cmax of SQV ([1]; RESV 20 mg/kg oral with SQV 30 mg/kg oral, P>0.05)	Time of first peak in plasma levels ([1]; SQV 30 mg/kg oral, RESV (20 mg/kg) treatment group) [h]	Time of second peak in plasma levels ([1]; SQV 30 mg/kg oral, both groups (with or without RESV 20 mg/kg))	Time of first peak in plasma levels ([1]; SQV 30 mg/kg oral, control group)	Coefficient of variation (CV) of oral bioavailability [2] [%]	Oral bioavailability [2]	Biopharmaceutics Classification System class [3]
Oc1ccc(/C=C/c2cc(O)cc(O)c2)cc1 [RESV, resveratrol]	not significantly affected	–	–	–	–	–	–
CC(C)(C)NC(=O)[C@@H]1C[C@@H]2CCCC[C@@H]2CN1C[C@@H](O)[C@H](Cc1ccccc1)NC(=O)[C@H](CC(N)=O)NC(=O)c1ccc2ccccc2n1 [SQV, saquinavir]	–	~0.25	~ 4 h	~ 0.5 h	> 100	~ 4%	class II
